Read-outs that look alike come from different tables or passages of the source.
Legend:
tau protein = target: T1, tau protein (Homo sapiens, UniProt P10636); assay: Tau-BiFC cell model, Forskolin-induced tau protein aggregation; type: cell-based; settings: for Tau BiFC in cells Response (%, @10 μM): 10 μM compound, BiFC fluorescence relative to Forskolin-only group (100% tau protein-aggregated state)
T1 construct: fused on or other part: Split Venus fragments VN173 and VC155, each fused to one copy of tau as BiFC reporter halves
T1 sequence (P10636 2-441 isoform P10636-8 limits assumed): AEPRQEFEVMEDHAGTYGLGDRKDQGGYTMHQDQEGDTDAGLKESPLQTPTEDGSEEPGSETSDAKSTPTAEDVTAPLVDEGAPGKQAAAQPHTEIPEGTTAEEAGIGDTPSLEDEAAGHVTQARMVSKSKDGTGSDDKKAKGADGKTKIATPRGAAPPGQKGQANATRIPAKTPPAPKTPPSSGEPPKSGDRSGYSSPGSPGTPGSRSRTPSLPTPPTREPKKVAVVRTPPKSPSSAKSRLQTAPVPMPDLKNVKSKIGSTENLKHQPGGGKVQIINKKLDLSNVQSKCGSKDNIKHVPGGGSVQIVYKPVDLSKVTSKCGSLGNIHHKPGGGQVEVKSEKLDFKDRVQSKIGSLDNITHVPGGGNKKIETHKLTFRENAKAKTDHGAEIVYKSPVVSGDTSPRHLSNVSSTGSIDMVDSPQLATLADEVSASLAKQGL
Protocol: (§1) In order to select novel tau protein aggregation—inhibiting substances, tau-BiFC cell model, in which formation of tau oligomers in living cells is easily observed, was used. Tau-BiFC cells were aliquoted into a 384-well plate. […] After 48 hours, nuclei in the cells were stained using Hoechst (at a treatment concentration of 2 μg/mL), and BiFC fluorescence intensity was automatically measured using Operetta (PerkinElmer) to count stained nuclei in each well out of the entire well plate. […] Furthermore, the degree of cytotoxicity induced by the newly synthesized compound was also measured based on the 100% cell viability of the group treated only with Forskolin as a reference, and the cytotoxicity value of each compound was calculated using the equation “(number of stained nuclei in group treated with compound/number of stained nuclei in group treated with Forskolin)×100”.
(§2) After 48 hours, tau protein aggregation reaction and degrees of cytotoxicity were analyzed by observing images of the cells. IC50 and toxicity of the compounds were analyzed by nonlinear regression analysis of Prism software (Graph Pad).

Tau-BiFC cells = assay: Cell viability (stained nuclei count) in tau-BiFC cells
Protocol: as §1, §2

CYP2C19 = target: T2, CYP2C19 (Homo sapiens, UniProt P33261); assay: CYP coenzyme activity in human liver microsomes, CYP2C19; type: in vitro ADME; settings: 10 μM compound, human liver microsomes 0.25 mg/mL, substrate S-mephenytoin, 15 minutes
T2 construct: human liver microsomes (0.25 mg/mL); from tissue; host or cells: human liver microsomes
T2 sequence (P33261 whole entry): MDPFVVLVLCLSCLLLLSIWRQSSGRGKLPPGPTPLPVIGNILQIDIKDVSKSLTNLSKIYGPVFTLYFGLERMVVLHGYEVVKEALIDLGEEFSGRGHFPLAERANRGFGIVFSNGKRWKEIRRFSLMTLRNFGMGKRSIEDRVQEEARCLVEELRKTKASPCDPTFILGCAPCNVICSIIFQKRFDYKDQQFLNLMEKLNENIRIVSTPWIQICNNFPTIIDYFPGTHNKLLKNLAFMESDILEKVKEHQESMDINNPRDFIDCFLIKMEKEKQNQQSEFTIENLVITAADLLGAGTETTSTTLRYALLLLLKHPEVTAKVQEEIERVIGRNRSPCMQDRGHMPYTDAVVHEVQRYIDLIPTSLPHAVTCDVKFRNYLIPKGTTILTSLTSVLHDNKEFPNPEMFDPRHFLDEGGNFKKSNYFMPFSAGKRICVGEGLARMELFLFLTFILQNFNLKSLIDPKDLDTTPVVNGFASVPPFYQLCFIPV
Protocol: (§3) Specifically, human liver microsomes (0.25 mg/mL), a 0.1 M phosphate buffer solution (pH 7.4), a substrate drug cocktail of five types of drug metabolism enzymes (50 μM phenacetin, 10 μM diclofenac, 100 μM S-mephenytoin, 5 μM dextromethorphan, and 2.5 μM midazolam), and the compound at a concentration of 0 μM or 10 μM were mixed and pre-cultured at 37° C. for 5 minutes, and then further cultured at 37° C. for 15 minutes together with an NADPH generation system solution added thereto. Thereafter, the reaction was terminated by adding an acetonitrile solution containing an internal standard material (terfenadine) and centrifuged for 5 minutes (14,000 rpm, 4° C.), and then a supernatant was injected into an LC-MS/MS system for simultaneous analysis of metabolites of the substrate drugs to thereby evaluate the inhibitory effects on drug metabolism.
(§4) Metabolites of each CYP coenzyme indicator drug generated through the reaction were analyzed using the Shimadzu Nexera XR system and TSQ Vantage (Thermo). In an HPLC column, Kinetex C18 (2.1 mm×100 mm, 2.6 μm particle size; Phenomenex, USA) was used, and mobile phases were (A) distilled water containing 0.1% formic acid and (B) acetonitrile containing 0.1% formic acid, and a gradient program shown in Table 3 was applied thereto.
(§5) The generated metabolites were quantified using a multiple reaction monitoring (MRM) quantification mode, and Xcalibur (version 1.6.1) was used for data analysis. In order to express the inhibitory effects of the novel compounds prepared according to the examples of the present invention on CYP coenzyme activity, CYP coenzyme activities (%) with respect to the control group not treated with any compound are shown in Table 4 below.

[1] = Liver microsome stability, human; type: in vitro ADME; settings: human liver microsomes 0.25 mg/mL, 1 μM compound, 37° C., 30 minutes, NADPH
Protocol: (§6) The stability of liver microsomes due to the compounds prepared according to Examples 1 to 14 was confirmed. Specifically, four types of liver microsomes (human, dog, rat, and mouse, each 0.25 mg/mL), a 0.1 M phosphate buffer solution (pH 7.4), and each of the compounds at a concentration of 1 μM were mixed and pre-cultured at 37° C. for 5 minutes and further cultured at 37° C. for 30 minutes together with an NADPH generation system solution added thereto. Thereafter, the reaction was terminated by adding an acetonitrile solution containing an internal standard material (chlorpropamide) and centrifuged for 5 minutes (14,000 rpm, 4° C.), and then a supernatant was injected into an LC-MS/MS system for analysis of substrate drugs to thereby evaluate metabolic stability due to 8 types of compounds.
(§7) The amount of the substrate remaining after the reaction was analyzed using the Shimadzu Nexera XR system and TSQ Vantage (Thermo). In an HPLC column, Kinetex XB-C18 (2.1 mm×100 mm, particle size of 2.6 μm; Phenomenex, USA) was used, and mobile phases were (A) distilled water containing 0.1% formic acid and (B) acetonitrile containing 0.1% formic acid. Analyst software (version 1.6.3) and Xcalibur (version 1.6.1) were used for data analysis.

CYP1A2 = target: T3, CYP1A2 (Homo sapiens, UniProt P05177); assay: CYP coenzyme activity in human liver microsomes, CYP1A2; type: in vitro ADME; settings: 10 μM compound, human liver microsomes 0.25 mg/mL, substrate phenacetin, 15 minutes
T3 construct: human liver microsomes (0.25 mg/mL); from tissue; host or cells: human liver microsomes
T3 sequence (P05177 1-516): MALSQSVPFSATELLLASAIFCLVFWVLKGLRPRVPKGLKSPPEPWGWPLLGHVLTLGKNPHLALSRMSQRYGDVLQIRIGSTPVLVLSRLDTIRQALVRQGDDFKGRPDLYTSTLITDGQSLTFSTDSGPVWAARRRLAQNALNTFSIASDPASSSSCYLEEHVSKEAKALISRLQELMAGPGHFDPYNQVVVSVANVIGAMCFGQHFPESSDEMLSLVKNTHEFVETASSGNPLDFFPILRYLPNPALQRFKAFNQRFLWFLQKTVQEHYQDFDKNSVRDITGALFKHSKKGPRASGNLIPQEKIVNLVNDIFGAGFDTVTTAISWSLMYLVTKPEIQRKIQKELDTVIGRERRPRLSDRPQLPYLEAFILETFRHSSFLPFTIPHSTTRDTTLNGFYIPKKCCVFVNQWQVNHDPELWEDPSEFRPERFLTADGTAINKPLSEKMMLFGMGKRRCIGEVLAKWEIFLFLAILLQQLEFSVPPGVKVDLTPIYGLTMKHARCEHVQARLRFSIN
Protocol: as §3, §4, §5

CYP2C9 = target: T4, CYP2C9 (Homo sapiens, UniProt P11712); assay: CYP coenzyme activity in human liver microsomes, CYP2C9; type: in vitro ADME; settings: 10 μM compound, human liver microsomes 0.25 mg/mL, substrate diclofenac, 15 minutes
T4 construct: human liver microsomes (0.25 mg/mL); from tissue; host or cells: human liver microsomes
T4 sequence (P11712 whole entry): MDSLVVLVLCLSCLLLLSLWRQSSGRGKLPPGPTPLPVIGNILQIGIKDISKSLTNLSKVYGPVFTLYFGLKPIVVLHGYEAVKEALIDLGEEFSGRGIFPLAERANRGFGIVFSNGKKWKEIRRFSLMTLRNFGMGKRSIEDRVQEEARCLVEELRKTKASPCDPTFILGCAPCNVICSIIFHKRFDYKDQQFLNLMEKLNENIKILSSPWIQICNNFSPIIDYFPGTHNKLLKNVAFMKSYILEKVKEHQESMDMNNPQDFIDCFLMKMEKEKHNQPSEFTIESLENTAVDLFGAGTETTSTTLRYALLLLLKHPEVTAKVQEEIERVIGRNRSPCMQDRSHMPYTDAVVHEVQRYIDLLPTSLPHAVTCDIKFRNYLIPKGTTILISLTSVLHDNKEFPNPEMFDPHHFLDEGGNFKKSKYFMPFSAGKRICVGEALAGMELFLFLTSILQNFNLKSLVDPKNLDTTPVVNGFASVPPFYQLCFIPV
Protocol: as §3, §4, §5

CYP2D6 = target: T5, CYP2D6 (Homo sapiens, UniProt P10635); assay: CYP coenzyme activity in human liver microsomes, CYP2D6; type: in vitro ADME; settings: 10 μM compound, human liver microsomes 0.25 mg/mL, substrate dextromethorphan, 15 minutes
T5 construct: human liver microsomes (0.25 mg/mL); from tissue; host or cells: human liver microsomes
T5 sequence (P10635 whole entry): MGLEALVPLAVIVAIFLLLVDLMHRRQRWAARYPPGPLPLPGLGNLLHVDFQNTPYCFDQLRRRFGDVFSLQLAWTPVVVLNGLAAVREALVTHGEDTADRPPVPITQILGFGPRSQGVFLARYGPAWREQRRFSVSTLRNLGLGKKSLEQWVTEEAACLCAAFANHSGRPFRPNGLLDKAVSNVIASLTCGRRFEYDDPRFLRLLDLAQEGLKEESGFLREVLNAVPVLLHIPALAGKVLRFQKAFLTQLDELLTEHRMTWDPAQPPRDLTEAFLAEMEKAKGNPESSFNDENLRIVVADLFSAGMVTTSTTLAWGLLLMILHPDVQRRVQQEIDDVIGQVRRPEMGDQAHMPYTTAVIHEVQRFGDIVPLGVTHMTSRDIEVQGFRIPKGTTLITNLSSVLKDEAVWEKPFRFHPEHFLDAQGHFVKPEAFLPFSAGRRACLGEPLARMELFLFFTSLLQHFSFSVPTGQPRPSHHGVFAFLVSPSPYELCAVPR
Protocol: as §3, §4, §5

[2] = Liver microsome stability, dog; type: in vitro ADME; settings: dog liver microsomes 0.25 mg/mL, 1 μM compound, 37° C., 30 minutes, NADPH
Protocol: as §6, §7

[3] = Liver microsome stability, mouse; type: in vitro ADME; settings: mouse liver microsomes 0.25 mg/mL, 1 μM compound, 37° C., 30 minutes, NADPH
Protocol: as §6, §7

[4] = Liver microsome stability, rat; type: in vitro ADME; settings: rat liver microsomes 0.25 mg/mL, 1 μM compound, 37° C., 30 minutes, NADPH
Protocol: as §6, §7

CYP3A4 = target: T6, CYP3A4 (Homo sapiens, UniProt P08684); assay: CYP coenzyme activity in human liver microsomes, CYP3A4; type: in vitro ADME; settings: 10 μM compound, human liver microsomes 0.25 mg/mL, substrate midazolam, 15 minutes
T6 construct: human liver microsomes (0.25 mg/mL); from tissue; host or cells: human liver microsomes
T6 sequence (P08684 whole entry): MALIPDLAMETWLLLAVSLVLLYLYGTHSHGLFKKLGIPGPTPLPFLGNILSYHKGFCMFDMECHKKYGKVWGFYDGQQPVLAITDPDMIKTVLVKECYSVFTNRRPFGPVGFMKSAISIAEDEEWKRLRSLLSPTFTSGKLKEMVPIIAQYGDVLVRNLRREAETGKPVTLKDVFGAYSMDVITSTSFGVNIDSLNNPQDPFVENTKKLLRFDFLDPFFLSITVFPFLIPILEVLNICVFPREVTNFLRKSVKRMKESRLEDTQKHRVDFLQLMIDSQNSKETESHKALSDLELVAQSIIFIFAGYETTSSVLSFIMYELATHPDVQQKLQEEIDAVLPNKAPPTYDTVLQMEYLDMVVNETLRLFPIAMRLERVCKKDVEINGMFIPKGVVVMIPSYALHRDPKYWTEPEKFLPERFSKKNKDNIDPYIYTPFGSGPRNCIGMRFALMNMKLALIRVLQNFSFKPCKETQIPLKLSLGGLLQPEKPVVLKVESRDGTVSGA
Protocol: as §3, §4, §5

[5] = 10 μM compound, stained nuclei relative to Forskolin-only group (100%), 48 hours
[6] = tau-BiFC cells, Forskolin 30 μM, 48 hours, read-out: Tau BiFC in cells IC50

N#CC(C#N)=NNc1ccc(-c2ccc(=O)[nH]n2)cc1 [Comparative Example 1, reference compound]
Tau BiFC in cells Response (%, @10 μM) (tau protein; 48 hours): 10.1%
IC50 (tau protein; Tau BiFC in cells IC50, tau-BiFC cells, Forskolin 30 μM, 48 hours): 16.8 µM
Cell viability (%, @10 μM) (Tau-BiFC cells; [5]): 130.3%

Cc1cc(=O)[nH]nc1-c1ccc(NN=C(C#N)C#N)cc1 [Comparative Example 2, reference compound]
Tau BiFC in cells Response (%, @10 μM) (tau protein; 48 hours): 1.8%
IC50 (tau protein; [6]): 3.5 µM
Cell viability (%, @10 μM) (Tau-BiFC cells; [5]): 128.6%

Cc1cc(-c2ccc(NN=C(C#N)C#N)cc2)n[nH]c1=O [Comparative Example 3, reference compound]
Tau BiFC in cells Response (%, @10 μM) (tau protein; 48 hours): 37.11%
IC50 (tau protein; [6]): > 10 µM
Cell viability (%, @10 μM) (Tau-BiFC cells; [5]): 113.1%

CC1CC(=O)NN=C1c1ccc(NN=C(C#N)C#N)cc1 (stereo not shown) [Comparative Example 4, reference compound]
Tau BiFC in cells Response (%, @10 μM) (tau protein; 48 hours): 45.7%
IC50 (tau protein; [6]): > 10 µM
Cell viability (%, @10 μM) (Tau-BiFC cells; [5]): 120.3%

N#CC(C#N)=NNc1ccc(-n2ncccc2=O)cc1 [Comparative Example 5, reference compound]
Tau BiFC in cells Response (%, @10 μM) (tau protein; 48 hours): 35.1%
IC50 (tau protein; [6]): > 10 µM
Cell viability (%, @10 μM) (Tau-BiFC cells; [5]): 124.2%

Cc1ccc(=O)n(-c2ccc(NN=C(C#N)C#N)cc2)n1 [Comparative Example 6, reference compound]
Tau BiFC in cells Response (%, @10 μM) (tau protein; 48 hours): 46.7%
IC50 (tau protein; [6]): > 10 µM
Cell viability (%, @10 μM) (Tau-BiFC cells; [5]): 114.9%

Cc1cnn(-c2ccc(NN=C(C#N)C#N)cc2)c(=O)c1 [Comparative Example 7, reference compound]
Tau BiFC in cells Response (%, @10 μM) (tau protein; 48 hours): 19.4%
IC50 (tau protein; [6]): 4.5 µM
Cell viability (%, @10 μM) (Tau-BiFC cells; [5]): 102.3%

Cc1ccnn(-c2ccc(NN=C(C#N)C#N)cc2)c1=O [Comparative Example 8, reference compound]
Tau BiFC in cells Response (%, @10 μM) (tau protein; 48 hours): 0%
IC50 (tau protein; [6]): 2.5 µM
Cell viability (%, @10 μM) (Tau-BiFC cells; 48 h, 10 μM): 110.1%

CC(C)N1N=C(c2ccc(NN=C(C#N)C#N)cc2)CCC1=O [Example 1, (4-(1-isopropyl-6-oxo-1,4,5,6-tetrahydropyridazin-3-yl)phenyl)carbonohydrazonoyl dicyanide]
CYP2C19 activity (%) with respect to control group not treated with any compound (CYP2C19): 70.8%
Cell viability (%, @10 μM) (Tau-BiFC cells; [5]): 110.1%
Human (%) amount remaining after the reaction [1]: 6.4%
CYP1A2 activity (%) with respect to control group not treated with any compound (CYP1A2): 79%
CYP2C9 activity (%) with respect to control group not treated with any compound (CYP2C9): 70.4%
CYP2D6 activity (%) with respect to control group not treated with any compound (CYP2D6): 74.6%
Dog (%) amount remaining after the reaction [2]: >100%
Mouse (%) amount remaining after the reaction [3]: >100%
Rat (%) amount remaining after the reaction [4]: >100%
CYP3A4 activity (%) with respect to control group not treated with any compound (CYP3A4): 81.7%

CC1CC(=O)N(C(C)C)N=C1c1ccc(NN=C(C#N)C#N)cc1 (stereo not shown) [Example 2, (4-(1-isopropyl-4-methyl-6-oxo-1,4,5,6-tetrahydropyridazin-3-yl)phenyl)carbonohydrazonoyl dicyanide]
CYP2C19 activity (%) with respect to control group not treated with any compound (CYP2C19): 64.7%
IC50 (tau protein): 0.4 µM
Tau BiFC in cells Response (%, @10 μM) (tau protein; 48 hours): 0%
Cell viability (%, @10 μM) (Tau-BiFC cells; [5]): 102.8%
Human (%) amount remaining after the reaction [1]: 63.6%
CYP1A2 activity (%) with respect to control group not treated with any compound (CYP1A2): 80.5%
CYP2C9 activity (%) with respect to control group not treated with any compound (CYP2C9): 65.7%
CYP2D6 activity (%) with respect to control group not treated with any compound (CYP2D6): 84.9%
Dog (%) amount remaining after the reaction [2]: >100%
Mouse (%) amount remaining after the reaction [3]: 89%
Rat (%) amount remaining after the reaction [4]: 92.5%
CYP3A4 activity (%) with respect to control group not treated with any compound (CYP3A4): 74.6%

CCN1N=C(c2ccc(NN=C(C#N)C#N)cc2)C(C)CC1=O (stereo not shown) [Example 3, (4-(1-ethyl-4-methyl-6-oxo-1,4,5,6-tetrahydropyridazin-3-yl)phenyl)carbonohydrazonoyl dicyanide]
CYP2C19 activity (%) with respect to control group not treated with any compound (CYP2C19): >100%
IC50 (tau protein): 0.09 µM
Tau BiFC in cells Response (%, @10 μM) (tau protein; 48 hours): 0%
Cell viability (%, @10 μM) (Tau-BiFC cells; [5]): 68.2%
Human (%) amount remaining after the reaction [1]: 90.3%
CYP1A2 activity (%) with respect to control group not treated with any compound (CYP1A2): >100%
CYP2C9 activity (%) with respect to control group not treated with any compound (CYP2C9): 99.9%
CYP2D6 activity (%) with respect to control group not treated with any compound (CYP2D6): 93.6%
Dog (%) amount remaining after the reaction [2]: 91.9%
Mouse (%) amount remaining after the reaction [3]: 89.6%
Rat (%) amount remaining after the reaction [4]: 89.6%
CYP3A4 activity (%) with respect to control group not treated with any compound (CYP3A4): >100%

COc1ccc(N2N=C(c3ccc(NN=C(C#N)C#N)cc3)C(C)CC2=O)cc1 (stereo not shown) [Example 7, (4-(1-(4-methoxyphenyl)-4-methyl-6-oxo-1,4,5,6-tetrahydropyridazin-3-yl)phenyl)carbonohydrazonoyl dicyanide]
IC50 (tau protein): 0.94 µM
Tau BiFC in cells Response (%, @10 μM) (tau protein; 48 hours): 2.3%
Cell viability (%, @10 μM) (Tau-BiFC cells; [5]): 89.3%

C[C@@H]1CC(=O)NN=C1c1ccc(NN=C(C#N)C#N)cc1 [Levosimendan, reference compound]
Tau BiFC in cells Response (%, @10 μM) (tau protein; 48 hours): 9.58%
IC50 (tau protein; [6]): 1.44 µM
Cell viability (%, @10 μM) (Tau-BiFC cells; [5]): 73.21%
